From patent US10730830B2, “Tetrahydronaphthalene derivative” (ONO PHARMACEUTICAL CO., LTD., priority 2016, dated 2020)
Counter-ions that a name gives are not always drawn.

Assays:
human S1P1 (EDG-1) = human S1P1 (EDG-1) (Homo sapiens (Human), UniProt P21453); experiment: Inhibition of binding of [33P]-S1P to S1P1 (EDG-1), CHO cell membrane fractions; conditions: [33P]-S1P displacement, CHO membranes overexpressing human S1P1
Procedure: (§1) Biological Experimental Example 1: Measurement of the Inhibitory Action of the Compound of the Present Invention on Binding of [^33P]-S1P to S1P5 (EDG-8)
(§2) A reaction was carried out in a 96-well microplate by using membrane fractions of Chinese hamster ovary (CHO) cells each of which was made to overexpress human S1P1 (EDG-1) or human S1P5 gene respectively, in an amount of the membrane fraction of 1 mg protein/mL. To each of the wells, 100 μL of a vehicle (DMSO) solution or a two-fold concentration-ligand solution each of which was diluted with Binding Buffer (50 mmol/L, Tris pH 7.5, 5 mmol/L, MgCl2, 0.5% BSA and Complete EDTA free (1 tablet/50 mL)), and 50 μL of 0.16 nmol/L [^33P]-S1P (manufactured by American Radiolabeled Chemicals, Inc.) diluted with Binding Buffer were added. Thereafter, the membrane fraction solutions (50 μL) was added to the wells and the reaction was carried out at room temperature for 60 minutes. After the reaction, suction filtration was carried out by using a 96-well UNIFILTER, and the 96-well microplate was washed with Wash Buffer (50 mmol/L, Tris pH 7.5, 0.5% BSA) ([…]), and thereafter, was dried at 60° C. for 45 minutes. MicroScint (trade name) 20 (50 μL/well) was added and the plate was covered with TopSeal-A, and thereafter, the radioactivity was measured by using TopCount (manufactured by PerkinElmer Inc.).

human S1P5 (EDG-8) [1] = biological target: T1, human S1P5 (EDG-8) (Homo sapiens (Human), UniProt Q9H228); experiment: Inhibition of binding of [33P]-S1P to S1P5 (EDG-8), CHO cell membrane fractions; conditions: [33P]-S1P displacement, CHO membranes overexpressing human S1P5
Procedure: as §1, §2

human S1P5 (EDG-8) [2] = biological target: T1, human S1P5 (EDG-8); experiment: S1P5 receptor agonist activity by monitoring intracellular cyclic AMP in CHO cells overexpressing human S1P5; type: cell-based; conditions: cAMP, forskolin-stimulated CHO cells overexpressing human S1P5
Procedure: Biological Example 2: Evaluation of S1P5 Receptor Agonist Activities of the Compound of the Present Invention by Monitoring the Concentration of Produced Intracellular Cyclic AMP
CHO cells which were made to overexpress human S1P5 (EDG-8) gene were cultured in Ham's F12 Medium (manufactured by Gibco-BRL) containing 10% FBS (fetal bovine serum), penicillin/streptomycin and geneticin (0.25 mg/mL). The medium was removed from the cultured cells, the cultured cells were washed once with phosphate-buffered saline, and the cultured cells were treated with a vehicle (DMSO) solution or a compound solution each of which was diluted with Buffer (Hanks' balanced salt solution containing 20 mmol/L HEPES, 0.1 or 0.2% BSA, 1 mmol/L IBMX and 5 μmol/L forskolin) at 37° C. for 30 minutes. Thereafter, the cultured cells were washed once with phosphate-buffered saline, lysis of the cells, and the concentration of cyclic AMP in the cell lysate were measured by using cAMP Assay Kit (Cisbio Bioassays).

T1 sequence (Q9H228 whole entry): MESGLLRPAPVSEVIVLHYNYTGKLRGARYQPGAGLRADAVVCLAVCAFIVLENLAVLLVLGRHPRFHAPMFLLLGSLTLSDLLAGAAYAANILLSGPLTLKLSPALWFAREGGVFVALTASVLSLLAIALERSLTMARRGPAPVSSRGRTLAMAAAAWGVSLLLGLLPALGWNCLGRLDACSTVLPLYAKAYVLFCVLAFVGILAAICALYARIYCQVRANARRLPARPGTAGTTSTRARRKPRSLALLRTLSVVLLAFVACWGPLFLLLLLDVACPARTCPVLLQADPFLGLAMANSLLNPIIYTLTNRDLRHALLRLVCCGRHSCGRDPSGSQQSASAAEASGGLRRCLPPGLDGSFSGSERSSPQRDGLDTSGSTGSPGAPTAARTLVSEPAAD
human S1P1 (EDG-1), sequence (P21453 whole entry): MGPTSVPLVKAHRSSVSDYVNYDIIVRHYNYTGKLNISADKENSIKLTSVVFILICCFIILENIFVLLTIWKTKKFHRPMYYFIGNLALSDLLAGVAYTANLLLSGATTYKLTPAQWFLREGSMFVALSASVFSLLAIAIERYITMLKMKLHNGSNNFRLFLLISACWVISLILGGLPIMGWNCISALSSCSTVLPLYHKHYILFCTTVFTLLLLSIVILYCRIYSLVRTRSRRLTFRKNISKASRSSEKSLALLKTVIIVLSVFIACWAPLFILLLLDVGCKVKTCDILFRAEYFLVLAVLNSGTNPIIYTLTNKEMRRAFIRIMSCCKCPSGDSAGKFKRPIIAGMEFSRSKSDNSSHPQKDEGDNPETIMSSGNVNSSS

| IC50 (human S1P1 (EDG-1)) [µM] | IC50 (human S1P5 (EDG-8) [1]) [nM] | SMILES | EC50 (human S1P5 (EDG-8) [2]) [nM] |
| --- | --- | --- | --- |
| > 10 | 100 to 1000 | O=C(O)CCCN1CCc2cccc(OCCc3ccccc3)c2CC1 [Example 18 (22), 4-[6-(2-Phenylethoxy)-1,2,4,5-tetrahydro-3H-3-benzazepin-3-yl]butanoic Acid] |  |
| > 10 | 1 to 100 | O=C(O)C1CN(C2CCc3cccc(OCCCc4ccccc4)c3C2)C1 (stereo not drawn) [Example 3 (4), 1-[8-(3-Phenylpropoxy)-1,2,3,4-tetrahydro-2-naphthalenyl]-3-azetidinecarboxylic Acid] |  |
| > 10 | 100 to 1000 | O=C(O)CCCN1CCc2cccc(OCCCC3CCOCC3)c2CC1 [Example 18 (42), 4-{6-[3-(tetrahydro-2H-pyran-4-yl)propoxy]-1,2,4,5-tetrahydro-3H-3-benzazepin-3-yl}butanoic Acid] |  |
| > 10 | 100 to 1000 | O=C(O)CCCN1CCc2cccc(OCCCC3CCCCC3)c2CC1 [Example 18 (14), 4-[6-(3-Cyclohexylpropoxy)-1,2,4,5-tetrahydro-3H-3-benzazepin-3-yl]butanoic Acid] |  |
| > 10 | 1 to 100 | O=C(O)C1CN(C2CCc3cccc(OCCc4cccc5ccccc45)c3C2)C1 (single isomer, unassigned; (+)) [Example 51 (2), (+)-1-{8-[2-(1-Naphthyl)ethoxy]-1,2,3,4-tetrahydro-2-naphthalenyl}-3-azetidinecarboxylic Acid] |  |
| > 10 | 1 to 100 | O=C(O)CCCN1CCc2cccc(OCCCCCc3ccccc3)c2CC1 [Example 18 (24), 4-{6-[(5-Phenylpentyl)oxy]-1,2,4,5-tetrahydro-3H-3-benzazepin-3-yl}butanoic Acid] |  |
| > 10 | 1 to 100 | O=C(O)C1CN(C2CCc3cccc(OCCc4cccc5ccccc45)c3C2)C1 (single isomer, unassigned; (-)) [Example 51 (1), (−)-1-{8-[2-(1-Naphthyl)ethoxy]-1,2,3,4-tetrahydro-2-naphthalenyl}-3-azetidinecarboxylic Acid] |  |
| > 30 | 1000 to 3000 | CC(C)c1ccc(/C=C/COc2cccc3c2CCN(CCCC(=O)O)C3)cc1 [Example 18 (3), 4-[5-{[(2E)-3-(4-Isopropylphenyl)-2-propen-1-yl]oxy}-3,4-dihydro-2(1H)-isoquinolinyl]butanoic Acid] |  |
| > 30 | 1000 to 3000 | O=C(O)C1CCN(C2CCc3c(cccc3OC/C=C/c3ccc(C(F)(F)F)cc3)C2)C1 (stereo not drawn) [Example 3 (1), 1-[5-({(2E)-3-[4-(Trifluoromethyl)phenyl]-2-propen-1-yl}oxy)-1,2,3,4-tetrahydro-2-naphthalenyl]-3-pyrrolidinecarboxylic Acid] |  |
| > 10 | 100 to 1000 | O=C(O)CC1(CN2CCc3cccc(OCCc4cccc5ccccc45)c3CC2)CC1 [Example 37, [1-({6-[2-(1-Naphthyl)ethoxy]-1,2,4,5-tetrahydro-3H-3-benzazepin-3-yl}methyl)cyclopropyl]acetic Acid] |  |
|  |  | O=C(O)C1CN(C2CCc3cccc(OCCc4cccc5ccccc45)c3C2)C1 (stereo not drawn) [Example 3 (5), 1-{8-[2-(1-Naphthyl)ethoxy]-1,2,3,4-tetrahydro-2-naphthalenyl}-3-azetidinecarboxylic Acid] | 1 to 100 |
| > 30 | 1000 to 3000 | O=C(O)CCCN1CCc2c(cccc2OC/C=C/c2ccc(OC(F)F)cc2)C1 [Example 18 (4), 4-[5-({(2E)-3-[4-(Difluoromethoxy)phenyl]-2-propen-1-yl}oxy)-3,4-dihydro-2(1H)-isoquinolinyl]butanoic Acid] |  |
| > 30 | 100 to 1000 | CN(CCC(=O)O)C1CCc2cccc(OC/C=C/c3ccc(C(F)(F)F)cc3)c2C1 (stereo not drawn) [Example 3 (3), 3-{Methyl[8-({(2E)-3-[4-(trifluoromethyl)phenyl]-2-propen-1-yl}loxy)-1,2,3,4-tetrahydro-2-naphthalenyl]amino}propanoic Acid] |  |
| > 30 | 1000 to 3000 | O=C(O)CCCN1CCc2cccc(OC/C=C/c3ccc(C(F)(F)F)cc3)c2C1 [Example 18 (2), 4-[8-({(2E)-3-[4-(Trifluoromethyl)phenyl]-2-propen-1-yl}oxy)-3,4-dihydro-2(1H)-isoquinolinyl]butanoic Acid trifluoroacetate] |  |
| > 10 | 1 to 100 | O=C(O)CCCN1CCc2cccc(OCCOc3ccc(C(F)(F)F)cc3)c2CC1 [Example 18 (10), 4-(6-{2-[4-(Trifluoromethyl)phenoxy]ethoxy}-1,2,4,5-tetrahydro-3H-3-benzazepin-3-yl)butanoic Acid] |  |
| > 10 | 1 to 100 | Cc1ccc2c(c1OCCCc1ccccc1)CCN(CCCC(=O)O)CC2 [Example 29, 4-[7-Methyl-6-(3-phenylpropoxy)-1,2,4,5-tetrahydro-3H-3-benzazepin-3-yl]butanoic Acid] |  |
| > 10 | 1 to 100 | O=C(O)C1CC(N2CCc3cccc(OCCc4cccc5ccccc45)c3CC2)C1 (single isomer, unassigned) [Example 23 (8), 3-{6-[2-(1-Naphthyl)ethoxy]-1,2,4,5-tetrahydro-3H-3-benzazepin-3-yl}cyclobutanecarboxylic Acid] |  |
| > 10 | 100 to 1000 | CCCCCCCCOc1cccc2c1CCN(CCCC(=O)O)CC2 [Example 18 (32), 4-[6-(Octyloxy)-1,2,4,5-tetrahydro-3H-3-benzazepin-3-yl]butanoic Acid] |  |
| > 10 | 100 to 1000 | O=C(O)CCCN1CCc2cccc(OCC3CCc4ccccc4C3)c2CC1 (stereo not drawn) [Example 18 (16), 4-[6-(1,2,3,4-Tetrahydro-2-naphthalenylmethoxy)-1,2,4,5-tetrahydro-3H-3-benzazepin-3-yl]butanoic Acid] |  |
|  |  | O=C(O)CCCN1CCc2cccc(OCCCc3ccccc3)c2CC1 [Example 18 (11), 4-[6-(3-Phenylpropoxy)-1,2,4,5-tetrahydro-3H-3-benzazepin-3-yl]butanoic Acid] | 1 to 100 |
| > 30 | 1000 to 3000 | O=C(O)CCCCN1CCCc2c(cccc2OC/C=C/c2ccc(C(F)(F)F)cc2)C1 [Example 49, 5-[6-({(2E)-3-[4-(Trifluoromethyl)phenyl]-2-propen-1-yl}oxy)-1,3,4,5-tetrahydro-2H-2-benzazepin-2-yl]pentanoic Acid] |  |
| > 30 | 100 to 1000 | O=C(O)C1CN(C2Cc3cccc(OCCc4ccccc4)c3C2)C1 (stereo not drawn) [Example 48, 1-[4-(2-Phenylethoxy)-2,3-dihydro-1H-inden-2-yl]-3-azetidinecarboxylic Acid] |  |
| > 10 | 100 to 1000 | O=C(O)CCCN1CCc2cccc(OCCC3Cc4ccccc43)c2CC1 (stereo not drawn) [Example 18 (26), 4-{6-[2-(Bicyclo[4.2.0]octa-1,3,5-trien-7-yl)ethoxy]-1,2,4,5-tetrahydro-3H-3-benzazepin-3-yl}butanoic Acid] |  |
| > 10 | 100 to 1000 | O=C(O)CCN1CCc2cccc(OC/C=C/c3ccc(C(F)(F)F)cc3)c2CC1 [Example 18 (8), 3-[6-({(2E)-3-[4-(Trifluoromethyl)phenyl]-2-propen-1-yl}oxy)-1,2,4,5-tetrahydro-3H-3-benzazepin-3-yl]propanoic Acid] |  |
| > 30 | 1000 to 3000 | O=C(O)CCCN1CCc2c(cccc2OCCc2ccc3ccccc3c2)C1 [Example 18 (1), 4-{5-[2-(2-naphthyl)ethoxy]-3,4-dihydro-2(1H)-isoquinolinyl}butanoic Acid trifluoroacetate] |  |

| SMILES | IC50 (human S1P1 (EDG-1)) [µM] | IC50 (human S1P5 (EDG-8) [1]) [nM] | EC50 (human S1P5 (EDG-8) [2]) [nM] |
| --- | --- | --- | --- |
| O=C(O)CCCN1CCc2cccc(OCCc3cccc4ccccc34)c2CC1 [Example 18 (18), 4-{6-[2-(1-Naphthyl)ethoxy]-1,2,4,5-tetrahydro-3H-3-benzazepin-3-yl}butanoic Acid] | > 10 | 1 to 100 | 1 to 100 |
